Results published in US6150332A, “Method and composition for lowering low density lipoprotein cholesterol” (Virginia Commonwealth University, priority 1998, dated 2000).

What was measured:
human HepG2 cells = assay: Iodine labeled LDL binding in HepG2 cells in culture; assay type: cell-based; conditions: 2 μM or 5 μM tested, added 24-48 hr after incubation began, FIG. 1a
Method: (§1) With reference to FIGS. 1a-b, an experiment was conducted wherein iodine labeled LDL was incubated with HepG2 or rat hepatocytes in culture with and without cleaved α1 -antitrypsin or hypocholesterolemic peptides. The cleaved α1 -antitrypsin and hypocholesterolemic peptides were added 24-48 hr after incubation began in 2 micromolar (μM) or 5 μM concentrations. The bound LDL was quantitated by counting. The control indicates the amount of bound LDL obtained when no cleaved α1 -antitrypsin or hypocholesterolemic peptides are present. FIGS. 1a-b show maximum LDL binding occurs when 2 μM α1 -antitrypsin or its peptide derivatives are added.
An acetyl derivative of SEQ ID No. 16 was tested experimentally in human Hep G2 cells for LDL binding in the same manner as described above in connection with FIGS. 1a-b. […] ID No. 16. The sub-fragment was added 24-48 hours after incubation began in concentrations ranging from 0.13-1.4 μM.

rat hepatocytes = assay: Iodine labeled LDL binding in rat hepatocytes in culture; assay type: cell-based; conditions: 2 μM or 5 μM tested, added 24-48 hr after incubation began, FIG. 1b
Method: as §1

α1 -antitrypsin
concentration at which maximum LDL binding occurs (human HepG2 cells): 2 µM
concentration at which maximum LDL binding occurs (rat hepatocytes): 2 µM
